Values after ≈ are worked out from the molar mass of the structure shown. Where two headings read alike, the source gives them in different places. One block for each compound: values may come before it.
What was measured:
Ggt = test: In vivo assay: control of Ggt on wheat in 3-inch pots with infested soil, rated after four weeks;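 for In vivo(ppm) 0.1, percent disease control: rate is mg active ingredient per pot in 3 mL solution not ppm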;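 for In vivo(ppm) 0.5, percent disease control: rate is mg active ingredient per pot in 3 mL solution not ppm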; parameters: species or system Gaeumannomyces graminis var. tritici; settings: Gaeumannomyces graminis, 672 h; for pest or weed control at 0.02 mg/pot: read-out: In vivo(ppm) 0.02mg/pot, percent disease control; for pest or weed control at 0.1 mg/pot: read-out: In vivo(ppm) 0.1, percent disease control; for pest or weed control at 0.5 mg/pot: read-out: In vivo(ppm) 0.5, percent disease control
Protocol: Compounds are tested for control of Ggt on 'Bergen' or 'Anza' varieties of wheat grown in 3-inch square pots containing soil infested with Ggt. The infestation is accomplished by mixing the soil with an inoculum prepared by growing Ggt on 1/4 strength potato dextrose agar (4.875 g potato dextrose agar, 5.0 g Bacto agar, 500 mL distilled, deionized water) in plates and using plugs from the plates to infest sterile oats (400 cc whole oats, 350 mL deionized water, autoclaved). After a one-month incubation period at room temperature, the oats are dried and mixed with the soil at 4% v/v. Four wheat seeds are placed on top of the soil in each pot. […] Five pots are used for each treatment level and the controls, which are untreated, inoculated and non-inoculated pots. After one hour drying time, the seeds are covered with more of the appropriate soil and a layer of vermiculite. The pots are placed in a growth chamber and watered each day. After four weeks, each pot is evaluated for evidence of disease by examination of the seminal roots of each plant under a dissecting microscope. A 0 to 5 rating scale having the following meanings is used: • 0 = no runner hyphae or lesions present • 1 = runner hyphae and a few small lesions present on <10% of root system • 2 = runner hyphae and small lesions present on 10 - 25% of root system • 3 = runner hyphae and lesions present on 25 - 50% of root system • 4 = runner hyphae and many, large, coalescing lesions on >50% of root system • 5 = root system and culm completely inundated with lesions and runner hyphae
From each set of five replicates a high or low score may be eliminated to assure the best representative scores are used to calculate a replicate mean by averaging the remaining scores. This mean score is then compared to the untreated control score and a percent disease control is calculated.

[1] = system: Gaeumannomyces graminis var. tritici (Ggt); test: In vitro assay: mycelial growth on minimal media agar plates (Percent Inhibition; IC50); type: cell-based; settings: for inhibition at 0.1 ppm: read-out: In vitro(ppm) 0.1, Percent Inhibition; for inhibition at 1 ppm: read-out: In vitro(ppm) 1, Percent Inhibition; for inhibition at 10 ppm: read-out: In vitro(ppm) 10, Percent Inhibition; for IC50: interpolated from percent inhibition at 1, 0.1, 0.01, 0.001 and 0.0001 ppm
Protocol: The test compounds (0.25 mL of an appropriate stock solution in acetone) are incorporated into 25 mL minimal media agar [prepared by autoclaving a solution of 17.5 g Czapek Dox broth (Difco), 7.5 g purified agar or Bacto-agar (Difco), and 500 mL distilled/deionized water, and then adding 50 µL of 1 mg/mL thiamine hydrochloride and 50 µL of 1 mg/mL biotin in 5% ethanol] and plates are prepared.
Each plate is inoculated by placing in a triangular shape three 4-mm plugs of Gaeumannomyces graminis var. tritici (Ggt) grown on the minimal media agar described above. The plates are incubated in the dark at 19 - 20 °C for 4 to 5 days. The growth of the fungus is measured as the diameter of the mycelial growth. The result is expressed as Percent Inhibition, calculated as [1 - [(mm growth on treated plate - 4)/(mm growth on control plate - 4)]] x 100.
To determine IC5O values, an in vitro assay was run on each compound at the concentrations of 1, 0.1, 0.01, 0.001, and 0.0001 ppm. The percent inhibition was calculated for each concentration using the equation described in the in vitro assay under the section on Biological Assays. Using the two ordered pairs of (concentration, % inhibition) that bracket 50% inhibition of fungal growth, the concentration for 50% inhibition is calculated from the following equation. IC50 = [(50-I2 )C1 + (I1 -50)C2 ]/(I1 -I2 ), [formula] where C1 = 10C2.

[2] = rate 0.02mg/pot, wheat, soil infested with Ggt, after four weeks
[3] = rate 0.1 (head prints ppm, head line ends mg/pot), wheat, soil infested with Ggt, after four weeks, N = no control
[4] = rate 0.5 (head prints ppm, head line ends mg/pot), wheat, soil infested with Ggt, after four weeks, N = no control
[5] = 0.1 ppm in agar, 19 - 20 °C, 4 to 5 days
[6] = 1 ppm in agar, 19 - 20 °C, 4 to 5 days
[7] = 10 ppm in agar, 19 - 20 °C, 4 to 5 days

Structure (SMILES): CC(C)(C)Nc1ccc2ccccc2c1C(=O)NCCBr [Example 18, N-(2-bromoethyl) 2-[(1,1-dimethylethyl)amino]-1-naphthamide]
pest or weed control at 0.02 mg/pot (Ggt; soil): 0%
pest or weed control at 0.1 mg/pot (Ggt; soil): 0%
pest or weed control at 0.5 mg/pot (Ggt; soil): 14%
inhibition at 0.1 ppm [1]: 10%
inhibition at 1 ppm [1]: 88%
inhibition at 10 ppm [1]: 98%

Structure (SMILES): CCN(CC)C(=O)c1c([Si](C)(C)C)sc2ccccc12 [Example 14, N,N-Diethyl-2-(trimethylsilyl)benzo[b]thiophene-3-carboxamide]
pest or weed control at 0.1 mg/pot (Ggt; soil): 76%
pest or weed control at 0.5 mg/pot (Ggt; soil): 94%
inhibition at 0.1 ppm [1]: 42%
inhibition at 1 ppm [1]: 92%
inhibition at 10 ppm [1]: 100%

Structure (SMILES): CCNC(=O)c1cc2ccccc2cc1[Si](C)(C)C [Example 5, N-Ethyl-3-(trimethylsilyl)-2-naphthalenecarboxamide]
pest or weed control at 0.1 mg/pot (Ggt; soil): 18%
pest or weed control at 0.5 mg/pot (Ggt; soil): 27%
inhibition at 0.1 ppm [1]: 0%
inhibition at 1 ppm [1]: 94%
inhibition at 10 ppm [1]: 100%

Structure (SMILES): CCNC(=O)c1c([Si](C)(C)C)ccc2occc12 [Example 42, N-ethyl 5-trimethylsilyl benzofuran-4-carboxamide]
pest or weed control at 0.02 mg/pot (Ggt; soil): 68%
pest or weed control at 0.1 mg/pot (Ggt; soil): 87%
pest or weed control at 0.5 mg/pot (Ggt; soil): 91%
inhibition at 0.1 ppm [1]: 90%
inhibition at 1 ppm [1]: 98%
inhibition at 10 ppm [1]: 100%

IC50 [1]: 9.18 ng/mL (≈ 0.0323 µM)
Structure (SMILES): CCNC(=O)c1c(NC(C)(C)CC)ccc2ccccc12 [Example 22, N-ethyl 2-[(1,1-dimethylpropyl)amino]-1-naphthamide]
pest or weed control at 0.02 mg/pot (Ggt; [2]): 11%
pest or weed control at 0.1 mg/pot (Ggt; [3]): 41%
pest or weed control at 0.5 mg/pot (Ggt; [4]): 70%
inhibition at 0.1 ppm [1, 5]: 95%
inhibition at 1 ppm [1, 6]: 98%
inhibition at 10 ppm [1, 7]: 98%

Structure (SMILES): CCNC(=O)n1c([Si](C)(C)C)cc2ccccc21 [Example 7, N-Ethyl-2-(trimethylsilyl)-1H-indole-1-carboxamide]
pest or weed control at 0.1 mg/pot (Ggt; soil): 40%
pest or weed control at 0.5 mg/pot (Ggt; soil): 79%
inhibition at 0.1 ppm [1]: 88%
inhibition at 1 ppm [1]: 100%
inhibition at 10 ppm [1]: 100%

IC50 [1]: 1 ng/mL (≈ 0.00335 µM)
Structure (SMILES): CCCNC(=O)c1c(NC(C)(C)CC)ccc2ccccc12 [Example 25, N-propyl 2-[(1,1-dimethylpropyl)amino]-1-naphthamide]
pest or weed control at 0.02 mg/pot (Ggt; [2]): 17%
pest or weed control at 0.1 mg/pot (Ggt; [3]): 57%
pest or weed control at 0.5 mg/pot (Ggt; [4]): 78%
inhibition at 0.1 ppm [1, 5]: 95%
inhibition at 1 ppm [1, 6]: 100%
inhibition at 10 ppm [1, 7]: 100%

Structure (SMILES): CCNC(=O)c1c([Si](C)(C)C)ccc2ccoc12 [Example 44, N-ethyl 6-trimethylsilyl benzofuran-7-carboxamide]
inhibition at 0.1 ppm [1]: 98%
inhibition at 1 ppm [1]: 98%
inhibition at 10 ppm [1]: 100%

Structure (SMILES): CCNC(=O)c1sc2ccccc2c1[Si](C)(C)C [Example 9, N-Ethyl-3-(trimethylsilyl)benzo[b]thiophene-2-carboxamide]
pest or weed control at 0.1 mg/pot (Ggt; soil): < 0%
inhibition at 0.1 ppm [1]: 0%
inhibition at 1 ppm [1]: 0%
inhibition at 10 ppm [1]: 88%

Structure (SMILES): CCNC(=O)c1c([Si](C)(C)C)ccc2ccsc12 [Example 43, N-ethyl 6-trimethylsilyl benzothiophene-7-carboxamide]
pest or weed control at 0.02 mg/pot (Ggt; soil): 50%
pest or weed control at 0.1 mg/pot (Ggt; soil): 79%
pest or weed control at 0.5 mg/pot (Ggt; soil): 88%
inhibition at 0.1 ppm [1]: 98%
inhibition at 1 ppm [1]: 100%
inhibition at 10 ppm [1]: 100%

Structure (SMILES): CCNC(=O)c1c(OC(C)(C)C)ccc2ccccc12 [Example 6, 2-(1,1-Dimethylethoxy)-N-ethyl-1-naphthalenecarboxamide]
pest or weed control at 0.1 mg/pot (Ggt; [3]): 53%
inhibition at 0.1 ppm [1, 5]: 21%
inhibition at 1 ppm [1, 6]: 86%
inhibition at 10 ppm [1, 7]: 93%

From patent EP0619297B1, “Fungicides for the control of take-all desease of plants” (MONSANTO COMPANY, priority 1993, dated 1994)
